From patent US7186831B2, “5-halo-2-alkyl[1,2,4]triazolo[1,5-a]pyrimidin-7-amines” (priority 2001, dated 2007)

assay: log P by HPLC; format: physicochemical; details: EEC directive 79/831 Annex V. A8 by HPLC (gradient method, acetonitrile/0.1% aqueous phosphoric acid)

logP | Compound
4.22 | Fc1cc(F)c(-c2c(Cl)nc3nc(C4CC4)nn3c2N2CCCCC2)c(F)c1 [compound 474]
1.73 | Cc1nc2nc(Cl)c(-c3c(F)cccc3F)c(N3CCC(O)C3)n2n1 (stereo not shown) [compound 303]
4.29 | CN(CC1CC1(Cl)Cl)c1c(-c2ccccc2Cl)c(Cl)nc2nc(C3CC3)nn12 (stereo not shown) [compound 508]
3.41 | Cc1nc2nc(Cl)c(-c3c(F)cccc3F)c(NOCc3cccc(C(F)(F)F)c3)n2n1 [compound 433]
2.45 | COCCN(C)c1c(-c2c(F)cccc2F)c(Cl)nc2nc(C)nn12 [compound 336]
2.85 | Cc1nc2nc(Cl)c(-c3c(F)cccc3F)c(NCC(C)C)n2n1 [compound 328]
4.16 | Cc1nc2nc(Cl)c(-c3ccc(F)cc3F)c(N3CC(C)CC(C)C3)n2n1 (stereo not shown) [compound 451]
3.83 | CCCN(CC1CC1)c1c(-c2c(F)cccc2F)c(Cl)nc2nc(C)nn12 [compound 345]
2.93 | Cc1nc2nc(Cl)c(-c3c(F)cccc3F)c(NOCc3ccccc3)n2n1 [compound 427]
2.42 | C=CCONc1c(-c2ccccc2F)c(Cl)nc2nc(C)nn12 [compound 373]
3.42 | Fc1cc(F)c(-c2c(Cl)nc3nc(C4CC4)nn3c2N2CCCCN2)c(F)c1 [compound 487]
3.38 | Cc1nc2nc(Cl)c(-c3c(F)cc(F)cc3F)c(NC(C)C(C)C)n2n1 (stereo not shown) [compound 523]
3.64 | Cc1nc2nc(Cl)c(-c3c(F)cccc3F)c(N3CCC(C)CC3)n2n1 [compound 313]
3.34 | C=C(C)CNc1c(-c2c(F)cc(F)cc2F)c(Cl)nc2nc(C3CC3)nn12 [compound 466]
1.12 | Cc1nc2nc(Cl)c(-c3c(F)cccc3F)c(N3CCN(C)CC3)n2n1 [compound 324]
3.14 | CCOC(=O)CN(CC)c1c(-c2c(F)cccc2Cl)c(Cl)nc2nc(C)nn12 [compound 270]
2.7 | Cc1nc2nc(Cl)c(-c3ccc(F)cc3F)c(Nc3ccc(F)cc3)n2n1 [compound 299]
3.56 | Cc1nc2nc(Cl)c(-c3ccc(F)cc3F)c(NC3CCCCC3C(F)(F)F)n2n1 (stereo not shown) [compound 408]
3.35 | Cc1nc2nc(Cl)c(-c3c(F)cc(F)cc3F)c(NC(C)C(C)C)n2n1 (stereo not shown) [compound 506]
1.26 | Cc1nc2nc(Cl)c(-c3ccccc3F)c(N3CCC(N4CCOCC4)CC3)n2n1 [compound 322]
2.16 | Cc1nc2nc(Cl)c(-c3ccccc3F)c(N3CCOCC3)n2n1 [compound 388]
2.75 | Cc1nc2nc(Cl)c(-c3ccccc3F)c(NOC(C)(C)C)n2n1 [compound 374]
3 | Cc1cccc(Nc2c(-c3ccc(F)cc3F)c(Cl)nc3nc(C)nn23)c1 [compound 456]
3.19 | Fc1cccc(Cl)c1-c1c(Cl)nc2nc(C3CC3)nn2c1NCC(F)(F)F [compound 481]
3.75 | CC(Nc1c(-c2ccc(F)cc2Cl)c(Cl)nc2nc(C3CC3)nn12)C(F)(F)F (racemic) [compound 505]
3.1 | Cc1nc2nc(Cl)c(-c3ccccc3Cl)c(NC(C)C(F)(F)F)n2n1 (stereo not shown) [compound 437]

same assay, conditions: HPLC, gradient method, acetonitrile/0.1% aqueous phosphoric acid; EEC directive 79/831 Annex V. A8

logP | Compound
3.32 | Fc1cccc(F)c1-c1c(Cl)nc2nc(C3CC3)nn2c1N1CC=CCO1 [compound 770]
3.73 | CC(Nc1c(-c2ccc(F)cc2Cl)c(Cl)nc2nc(C3CC3)nn12)C(F)(F)F (single isomer, unassigned) [compound 767]
3.44 | CC(C)CNc1c(-c2c(F)cccc2F)c(Cl)nc2nc(C3CC3)nn12 [compound 744]
2.3 | COCCNc1c(-c2ccccc2Cl)c(Cl)nc2nc(C)nn12 [compound 236]
4.02 | Fc1ccc(-c2c(Cl)nc3nc(C4CC4)nn3c2NC2CCCCC2)c(F)c1 [compound 652]
2.28 | Cc1nc2nc(Cl)c(-c3c(F)cccc3F)c(NC3CC3)n2n1 [compound 178]
2.88 | Cc1nc2nc(Cl)c(-c3c(F)cccc3F)c(NOCC(C)C)n2n1 [compound 135]
3.57 | Cc1nc2nc(Cl)c(-c3ccccc3Cl)c(NCC(C)(C)C)n2n1 [compound 211]
3.8 | Fc1ccc(-c2c(Cl)nc3nc(C(F)(F)F)nn3c2NCC2CC2)c(F)c1 [compound 533]
4.77 | CCCN(CC1CCCO1)c1c(-c2ccc(F)cc2F)c(Cl)nc2nc(C(F)(F)F)nn12 (stereo not shown) [compound 552]
4.24 | CC(C)CC(C)Nc1c(-c2ccc(F)cc2F)c(Cl)nc2nc(C3CC3)nn12 (stereo not shown) [compound 660]
2.82 | CCC(C)Nc1c(-c2c(F)cccc2F)c(Cl)nc2nc(C)nn12 (stereo not shown) [compound 187]
2.75 | COCCNc1c(-c2ccc(F)cc2F)c(Cl)nc2nc(C3CC3)nn12 [compound 654]
3.83 | C=C(C)CN(CC)c1c(-c2c(F)cc(F)cc2F)c(Cl)nc2nc(C)nn12 [compound 14]
3.92 | Fc1cc(F)c(-c2c(Cl)nc3nc(C(F)(F)F)nn3c2N2CCCC2)c(F)c1 [compound 103]
2.67 | Cc1nc2nc(Cl)c(-c3c(F)cc(F)cc3F)c(N(C)CC3OCCO3)n2n1 [compound 151]
3.94 | Cc1nc2nc(Cl)c(-c3ccccc3Cl)c(N3CCC(C)CC3)n2n1 [compound 230]
3.09 | Cc1nc2nc(Cl)c(-c3c(F)cc(F)cc3F)c(N3CCSCC3)n2n1 [compound 66]
2.95 | Cc1nc2nc(Cl)c(-c3ccc(F)cc3F)c(N3CCCCO3)n2n1 [compound 576]
2.69 | Cc1nc2nc(Cl)c(-c3c(F)cc(F)cc3F)c(NCC(F)(F)F)n2n1 [compound 13]
3.43 | Cc1nc2nc(Cl)c(-c3c(F)cc(F)cc3F)c(N3CCCCC3)n2n1 [compound 60]
4.03 | CCC(C)Nc1c(-c2ccc(F)cc2F)c(Cl)nc2nc(C(F)(F)F)nn12 (stereo not shown) [compound 528]
3.66 | CCN(CCOC)c1c(-c2c(F)cccc2Cl)c(Cl)nc2nc(C3CC3)nn12 [compound 701]
3.22 | Cc1nc2nc(Cl)c(-c3c(F)cc(F)cc3F)c(N(C)Cc3ccco3)n2n1 [compound 153]
2.62 | Cc1nc2nc(Cl)c(-c3ccccc3Cl)c(N(C)CC3OCCO3)n2n1 [compound 219]
3.41 | C=C(C)CN(C)c1c(-c2ccc(F)cc2F)c(Cl)nc2nc(C)nn12 [compound 206]
3.98 | Fc1ccc(-c2c(Cl)nc3nc(C4CC4)nn3c2NC2CCCC(C(F)(F)F)C2)c(F)c1 (stereo not shown) [compound 658]
3.38 | COC(=O)C1CCN(c2c(-c3ccc(F)cc3F)c(Cl)nc3nc(C4CC4)nn23)CC1 [compound 731]

logP | Compound
2.45 | Cc1nc2nc(Cl)c(-c3ccc(F)cc3F)c(NC3CC3)n2n1 [compound 199]
3.07 | COCCNc1c(-c2ccc(F)cc2Cl)c(Cl)nc2nc(C3CC3)nn12 [compound 616]
4.12 | CC(C)C(C)Nc1c(-c2c(F)cccc2Cl)c(Cl)nc2nc(C3CC3)nn12 (stereo not shown) [compound 583]
3 | Cc1nc2nc(Cl)c(-c3ccc(F)cc3F)c(NCC(C)C)n2n1 [compound 191]
3.59 | C=C(C)CNc1c(-c2ccc(F)cc2Cl)c(Cl)nc2nc(C3CC3)nn12 [compound 626]
3.84 | CCCN(CCOC)c1c(-c2ccc(F)cc2F)c(Cl)nc2nc(C3CC3)nn12 [compound 602]
3.09 | CCC(C)Nc1c(-c2ccccc2Cl)c(Cl)nc2nc(C)nn12 (stereo not shown) [compound 212]
2.76 | OC1CCN(c2c(-c3ccc(F)cc3F)c(Cl)nc3nc(C(F)(F)F)nn23)C1 (stereo not shown) [compound 555]
3.17 | CC1CCCCN1c1c(-c2c(F)cccc2F)c(Cl)nc2nc(C3CC3)nn12 (stereo not shown) [compound 680]
3.6 | Cc1nc2nc(Cl)c(-c3ccc(F)cc3Cl)c(NC(C)C(C)C)n2n1 (stereo not shown) [compound 588]
4.72 | CC(C)C(C)Nc1c(-c2ccc(Cl)cc2Cl)c(Cl)nc2nc(C3CC3)nn12 (single isomer, unassigned) [compound 759]
4.06 | Cc1nc2nc(Cl)c(-c3ccc(Cl)cc3Cl)c(NC(C)C(C)C)n2n1 (stereo not shown) [compound 788]
3.56 | Fc1cc(F)c(-c2c(Cl)nc3nc(C4CC4)nn3c2N2CC=CCO2)c(F)c1 [compound 786]
0.75 | Cc1nc2nc(Cl)c(-c3ccccc3Cl)c(N3CCCC3)n2n1 [compound 227]
2.32 | COC(=O)CN(C)c1c(-c2c(F)cccc2F)c(Cl)nc2nc(C)nn12 [compound 565]
3.03 | Cc1nc2nc(Cl)c(-c3c(F)cc(F)cc3F)c(N3CCC(F)CC3)n2n1 [compound 167]
3.66 | CCc1nc2nc(Cl)c(-c3c(F)cc(F)cc3F)c(NC3CCCC3)n2n1 [compound 75]
4.51 | CC(C)CN(C)c1c(-c2ccc(F)cc2Cl)c(Cl)nc2nc(C3CC3)nn12 [compound 627]
1.85 | Cc1nc2nc(Cl)c(-c3c(F)cc(F)cc3F)c(N3CCC(O)C3)n2n1 (stereo not shown) [compound 98]
4.18 | CC1CN(c2c(-c3c(F)cc(F)cc3F)c(Cl)nc3nc(C(F)(F)F)nn23)CC(C)O1 (stereo not shown) [compound 101]
3.9 | Cc1nc2nc(Cl)c(-c3c(F)cc(F)cc3F)c(N3CCC(C)CC3)n2n1 [compound 166]
3.55 | C=C(C)CN(C)c1c(-c2c(F)cc(F)cc2F)c(Cl)nc2nc(C)nn12 [compound 155]
4.72 | CC1CCCCN1c1c(-c2ccc(F)cc2Cl)c(Cl)nc2nc(C3CC3)nn12 (stereo not shown) [compound 617]
4.3 | CC(C)CNc1c(-c2ccc(Cl)cc2Cl)c(Cl)nc2nc(C3CC3)nn12 [compound 790]
2.57 | OC1CCCN(c2c(-c3ccc(F)cc3F)c(Cl)nc3nc(C4CC4)nn23)C1 (stereo not shown) [compound 614]
4.41 | C=C(C)CN(C)c1c(-c2ccc(F)cc2Cl)c(Cl)nc2nc(C3CC3)nn12 [compound 629]
4.35 | Fc1ccc(-c2c(Cl)nc3nc(C(F)(F)F)nn3c2N2CCc3ccccc3C2)c(F)c1 [compound 815]

Compound | logP
CN(CCCl)c1c(-c2ccc(F)cc2F)c(Cl)nc2nc(C3CC3)nn12 [compound 721] | 3.5
